Data from patent US5994361A, “Substituted purinyl derivatives with immunomodulating activity” (priority 1995, dated 1999).
Read-outs that look alike come from different tables or passages of the source.

Columns and labels:
[1] = system: cytotoxic T lymphocytes, P815 target cells; assay: Cytotoxic T lymphocytes (CTL) assay; format: cell-based, C57B1/6 mice and DBA/2 mice; conditions: for activation at 0.1 µM / activation at 10 µM / activation at 0.001 µM: Mus musculus, P815, 120 h, read-out: CTL activity, % increase compared to IL2 (100%); for activation at 10 µM: at 10^-5 M; for activation at 0.001 µM: at 10^-9 M
Description: (§1) Mixed lymphocyte reaction is an in vitro counterpart of the allograft rejection. Briefly, T cell response was obtained when cells taken from two inbred strains from two outbred individuals of any species were mixed in vitro in culture.
(§2) After 4 days incubation, ^3 H thymidine uptake and cytotoxicity assay (CTL) were performed.
(§3) 3 C57B1/6 mice and 3 DBA/2 mice wre killed and lymphocytes prepared using lympholyte M. The cell concentration was adjusted to 10×10^6 cell/ml for each lysis. DBA/2 cells were irradiated with 3000 Rads. 1 ml of the C57 cells+1 ml of the DBA/2 cells+1 ml of the drug at 3 different concentrations were incubated together for 5 days. Positive control was IL-2 at 15 ng/ml final. After 5 days, the CTL and MLR tests were carried out.
P815 target cells were labelled with Cr^51. After labelling, the cells were resuspended to 5×10^4 cells/ml.
100 μl of target cells+100 μl Of T cells were incubated for 4 hrs and then 100 μl of supernatant was counted using a gamma counter.

[2] = system: T cell response (mixed lymphocyte reaction); assay: Mixed lymphocyte reaction (MLR) assay; format: cell-based, C57B1/6 mice and DBA/2 mice
Description: as §1, §2, §3
The cells were resuspended and 100 μl of cell suspension were deposited in each of the 96 wells in the plate, 50 μl of Thymidine at 20 μCi/ml was added for 6 hrs. The cells were then collected and counted using a beta counter.

immune system = conditions: prior art; cited from earlier work
[3] = prior art; cited from earlier work
[4] = system: B cell activity (LPS), spleen mononuclear leukocytes; assay: Mitogenic proliferation on spleen cell suspension, B (LPS); format: cell-based, C57BL-6 mice
Text: (§4) Mitogenic lectin (mitogen) is a protein which binds and cross-links specific cells surface carbohydrate determinants, and will polyclonally stimulate lymphoid cells. Lymphocyte activation by either antigens or mitogens results in intracellular changes and the subsequent development into a lymphoblast. Mitogenic stimulation of lymphocytes in vitro is believed to mimic the series of events which occur in vivo following their stimulation by specific antigens. PHA, ConA, and PWM, LPS mitogens can be used as a measurement of T cell and B cell activity, respectively.
(§5) Briefly, spleen mononuclear leukocytes from C57BL-6 mice were incubated in the presence or absence of mitogens with or without tested drugs. After 72 hours or 5 days, ^3 H thymidine incorporation was recorded as an indication of cell transformation and proliferation.
(§6) 100 μl of a suspension of 2×10^6 cells/ml (2×10^5 cells/well) were incubated in presence of PHA or ConA or PWM or LPS at the following concentrations:
(§7) PHA=0.01% final concentration-0.001%
(§8) Cells were incubated in presence or absence of drugs for 72 hours. 0.5 or 1 μCi of tritiated thymidine (^3 H) was added per well the last 18 or 6 hours of incubation respectively. Cells were harvested and counted on a Beta counter.

[5] = system: T cell activity (ConA), spleen mononuclear leukocytes; assay: Mitogenic proliferation on spleen cell suspension, T (ConA); format: cell-based, C57BL-6 mice
Text: as §4, §5, §6, §7, §8

[6] = at 10^-12 - 10^-6 (M), 4320 min

## N=C(N)NCCC[C@@H](NC(=O)OCCCCCn1cnc2c(=O)[nH]cnc21)C(=O)O [Compound #11, Hydroxypurinyl Pentoxycarbonyl D-Arginine]
[1]; at 10^-7 M
  activation at 0.1 µM: 40 to 60%
[2]; at 10^-7 - 10^-5 M
  MLR: 2 - 2.5 ×

## isoprinosine
Immune system
  immunomodulating activity: not an effective immunomodulator
[3]
  toxicity: very nontoxic

## N=C(N)NCCC[C@@H](NC(=O)OCCCCCn1cnc2cncnc21)C(=O)O [Compound #20, N-9-purinyl-7-pentyloxycarbonyl-D-arginine]
[1]
  activation at 10 µM: 40 to 60%

## O=c1[nH]cnc2c1cnn2CCCCCO [ST 689, allopurinol pentanol, reference compound]
[1]; at 10^-7 M, preliminary result
  CTL activity, % increase compared to IL2 (100%): ++++ (80+)
Immune system
  immunomodulating activity: not significantly more immunostimulatory than ST 789
[2]; at 10^-5 M, preliminary result, 10 µM
  MLR: 1.6 ×

## OCCCCCn1cnc2c(S)ncnc21 [Compound #59, N-(6-Mercaptopurin-9-yl)-pentanol]
[1]
  activation at 0.001 µM: 40 to 60%
[2]; at 10^-9 - 10^-5 M
  MLR: 2 - 2.4 ×

## OCCCCCn1cnc2cncnc21 [Compound #19, N-9-purinyl-5-pentanol]
[1]; at 10^-7 M, preliminary result
  activation at 0.1 µM: 40 to 60%
[2]; concentration not given, preliminary result
  MLR: 0

## N=C(N)NCCC[C@H](NC(=O)OCCCCCn1cnc2c(N)ncnc21)C(=O)O [Compound #6, Aminopurinyl Pentoxycarbonyl L-Arginine]
[1]
  activation at 0.001 µM: 60 to 80%
[2]; at 10^-9 - 10^-5 M
  MLR: 1.5 - 3 ×

## CNc1ncnc2c1ncn2CCCCCOC(=O)N[C@H](CCCNC(=N)N)C(=O)O [Compound #3, N-Monomethylaminopurinyl Pentoxycarbonyl D-Arginine]
[1]
  activation at 10 µM: 20 to 40%
[4]; at 10^-8 - 10^-6 (M), 4320 min
  B (LPS) mitogenic proliferation: 2 - 2.5 ×
[2]; at 10^-9 - 10^-5 M
  MLR: 1.5 ×
[5]; [6]
  T (ConA) mitogenic proliferation: 2 - 6 ×

## NNc1ncnc2c1ncn2CCCCCO [Compound #7a, N-(6-Hydrazinopurin-9-yl) 5-Pentanol]
[1]; preliminary result
  activation at 0.001 µM: > 80%
[2]; at 10^-9 - 10^-5 M, preliminary result
  MLR: 2 ×

## OCCCCCn1cnc2c(Cl)ncnc21 [Compound #III, N-(6-Chloropurin-9-yl)-5-pentanol]
[1]; at 10^-7 M
  activation at 0.1 µM: 60 to 80%
[2]; at 10^-9 - 10^-5 M
  MLR: 1.5 - 2.5 ×

## CSc1ncnc2c1ncn2CCCCCO [Compound #60, N-(6,-N-Methylthiopurin-9-yl)-pentanol]
[1]; at 10^-7 M
  activation at 0.1 µM: 20 to 40%
[2]; at 10^-9 - 10^-5 M
  MLR: 1.7 - 2 ×

## Oc1ncnc2[nH]ncc12 [allopurinol]
Immune system
  immunomodulating activity: immunosuppressive

## N=C(N)NCCC[C@H](NC(=O)OCCCCCn1cnc2c(NN)ncnc21)C(=O)O [Compound #8, Hydrazinopurinyl Pentoxycarbonyl L-Arginine]
[1]
  activation at 0.001 µM: > 80%
[2]; at 10^-9 - 10^-5 M
  MLR: 1.5 - 2 ×

## N=C(N)NCCC[C@@H](NC(=O)OCCCCCn1cnc2c(NN)ncnc21)C(=O)O [Compound #7, Hydrazinopurinyl Pentoxycarbonyl D-Arginine]
[1]
  activation at 0.001 µM: 60 to 80%
[4]; concentration not given
  B (LPS) mitogenic proliferation: 0
[2]; at 10^-9 - 10^-6 M, 7200 min
  MLR: 1.5 - 2 ×
[5]; at 10^-12 - 10^-8 (M), 4320 min
  T (ConA) mitogenic proliferation: 2 - 6 ×

## N=C(N)NCCC[C@@H](NC(=O)OCCCCCn1cnc2c(Cl)ncnc21)C(=O)O [Compound #9, Chloropurinyl Pentoxycarbonyl D-Arginine]
[5]; [6]
  T (ConA) mitogenic proliferation: 2 - 3.5 ×

## CN(C)c1ncnc2c1ncn2CCCCCO [Compound #V, N-(6-N,N-Dimethylaminopurin-9-yl)-pentanol]
[1]; at 10^-7 M
  activation at 0.1 µM: 60 to 80%
[2]; at 10^7 - 10^5 M (so in the source)
  MLR: 1.5 - 2 ×

## COc1ncnc2c1ncn2CCCCCO [Compound #51, N-(6-methoxypurin-9-yl) 5-pentanol]
[1]; at 10^-7 M
  activation at 0.1 µM: 40 to 60%
[2]; at 10^-9 - 10^-6 M, 7200 min
  MLR: 1.5 - 2 ×

## N=C(N)NCCC[C@H](NC(=O)OCCCCCn1cnc2c(=O)[nH]cnc21)C(=O)O [ST 789, reference compound]
[1]; at 10^-7 M
  activation at 0.1 µM: 40 to 60%
Immune system
  stimulation of cytotoxic T lymphocytes (CD8+ T cells): no indication
[4]; at 10^-8 - 10^-5 (M), 4320 min
  B (LPS) mitogenic proliferation: 1.5 - 3 ×
[2]; at 10^-9 - 10^-5 M
  MLR: 2 - 3 ×
[5]; concentration not given
  T (ConA) mitogenic proliferation: 0

## CNc1ncnc2c1ncn2CCCCCO [Compound #3a, N-(6-N-Methyl-Aminopurin-9-yl)-pentanol]
[1]; at 10^-9 - 10^-7 M
  CTL activity, % increase compared to IL2 (100%): +++ (60-80%)
[2]; at 10^-9 - 10^-5 M
  MLR: 1.5 - 2.9 ×

## CN(C)c1ncnc2c1ncn2CCCCCOC(=O)N[C@@H](CCCNC(=N)N)C(=O)O [Compound #2, N,N-Dimethylaminopurinyl Pentoxycarbonyl L-Arginine]
[1]; concentration not given
  CTL activity, % increase compared to IL2 (100%): 0 (less than 20%)
[4]; concentration not given
  B (LPS) mitogenic proliferation: 0
[2]; at 10^-7 - 10^-5 M
  MLR: 1.5 - 2 ×
[5]; at 10^-8 - 10^-5 (M), 4320 min
  T (ConA) mitogenic proliferation: 2 - 4 ×

## Nc1ncnc2c1ncn2CCCCCO [Compound #5a, N-(6-Aminopurin-9-Yl) 5-Pentanol]
[1]; at 10^-7 - 10^-5 M
  CTL activity, % increase compared to IL2 (100%): ++ (40-60%)
[2]; at 10^-9 - 10^-6 M, 7200 min
  MLR: 1.5 - 2 ×

## N=C(N)NCCC[C@@H](NC(=O)OCCCCCn1cnc2c(N)ncnc21)C(=O)O [Compound #5, Aminopurinyl Pentoxycarbonyl D-Arginine]
[1]; at 10^-7 M
  activation at 0.1 µM: 20 to 40%
[2]; at 10^-7 - 10^-5 M
  MLR: 1.5 - 2 ×
